Results as given in patent US6602853B1, “Antigenic peptides reacting with anti-ovary antibodies” (Bio Merieux, priority 1996, dated 2003).
Bridges are numbered along the chain shown (N, C = ends). Where no end group is shown, it is not given here.

What was measured:
[1] = tested on: anti-ovary antibodies (AOA); test: ELISA on 30 patient sera: correlation of serum reactivity toward crude ovarian antigen and toward each peptide (Example 2); assay type: binding, human; settings: for correlation between reactivity of sera toward ovarian antigen and toward the antigen tested, in words / r value, correlation between reactivity of sera toward ovarian antigen and toward the peptide, IgA AOA / r value, correlation between reactivity of sera toward ovarian antigen and toward the peptide, IgG AOA / r value, correlation between reactivity of sera toward ovarian antigen and toward the peptide, IgM AOA: 30 sera from patients, ELISA; for correlation between reactivity of sera toward ovarian antigen and toward the antigen tested, in words: compared among antigens; for r value, correlation between reactivity of sera toward ovarian antigen and toward the peptide, IgA AOA: isotype IgA; for r value, correlation between reactivity of sera toward ovarian antigen and toward the peptide, IgG AOA: isotype IgG; for r value, correlation between reactivity of sera toward ovarian antigen and toward the peptide, IgM AOA: isotype IgM; for antigenic or immunogenic activity toward anti-ovary antibodies, in words: comparison among oligopeptides, Example 2
Protocol: (§1) The concentration of molecules to be adsorbed was determined by checkerboard experiments for each antigen. It is about 1 μg per well.
(§2) The binding of the antigens to the solid phase is performed in one night at +4° C. in the amount of 100 μl per well of the solution of antigen in carbonate-bicarbonate buffer. The plate is emptied. The sites of the solid phase still unoccupied are saturated on incubation for one hour at 37° C. with 200 μl per well of 5% powdered milk reconstituted in PBS.
The plate is emptied and washed 3 times in PBS. The samples are distributed in the amount of 100 μl per well. The plate is incubated for 45 minutes at 37° C.
(§3) The anti-isotypes are diluted in the same solution that was used for the dilution of the samples:
(§4) The plate is again emptied and washed 3 times in PBS. Then the anti-isotypes are distributed in the amount of 100 μl per well. The plate is incubated for 45 minutes at 37° C.
(§5) The developer solution is prepared on the spot, as follows for one plate:
(§6) After 3 further washings of the plate, 100 μl of developer solution are distributed into each well. After appearance of a yellow colour of greater or lesser intensity the reaction is stopped with 50 μl of H2SO4. The plate is read on the spectrophotometer at 492 nm using the Multiskan II reader.
Any ratio greater than 1 is considered as positive.
These four peptides obtained in lyophilized form were, after reconstitution and dialysis, used as antigens in a series of ELISA tests on 30 sera from patients.
Moreover, these same sera were tested against the crude ovarian antigens.
The immunoenzymatic technique used is that described in Example 1.

[2] = tested on: anti-ovary antibodies; test: Recognition by serums containing anti-ovary antibodies; assay type: binding
[3] = tested on: anti-β-FSH monoclonal antibody 7G5A1; test: Reaction with anti-β-FSH monoclonal antibody 7G5A1; assay type: binding; settings: antibody only recognizing metrodine
[4] = tested on: anti-β-FSH monoclonal antibodies 22A3G7; 5H3E8; test: Recognition by anti-β-FSH monoclonal antibodies 22A3G7 and 5H3E8; assay type: binding; settings: antibodies immunoreactive with metrodine and ovarian extracts
[5] = tested on: anti-ovary antibodies (AOA); test: ELISA on 295 sera of IVF patients: correlation of reactivity toward total ovarian extract and toward peptide SEQ ID NO:1 (Example 3); assay type: binding, human; settings: for r value, IgA AOA vs IgA SEQ ID No.1: crude ovarian antigen IgA vs peptide IgA
Protocol: as §1, §2
The samples to be tested are diluted in PBS to which 0.5% BSA and 0.2% Tween 20 have been added: dilution to 1/50 for the search for anti-ovary and anti-corpus luteum antibodies. The plate is emptied and washed 3 times in PBS. The samples are distributed in the amount of 100 μl per well. The plate is incubated for 45 minutes at 37° C.
as §3, §4, §5, §6
The results are firstly expressed as optical density (O.D.) then calculated as ratios relative to a control sample at the limit of positivity. Any ratio greater than 1 is considered as positive.
[…] and ninety-five sera were tested in duplicate, using the immunoenzymatic method described above, with, firstly, the total ovarian extract, and, secondly, the peptide SEQ ID NO: 1. For each antigen, the three immunoglobulin isotypes IgG, IgA and IgM were studied.
The patients included in the study were all scheduled for IVF. Their average age was 32.7±4.2 years. The average duration of the sterility was 4.8±2.8 years.
In 209 cases the serum was collected on the eighth day of the stimulation, and in 84 cases the serum was collected 15 days after the puncture.
The results of the correlation obtained between the reactivity of the sera toward the crude ovarian antigen and that of the same sera toward the peptide SEQ ID NO:1 tested, and expressed by an r value, are shown in Table II below: […]

Row | Molecule | correlation between reactivity of sera toward ovarian antigen and toward the antigen tested, in words [1] | r value, correlation between reactivity of sera toward ovarian antigen and toward the peptide, IgA AOA [1] | r value, correlation between reactivity of sera toward ovarian antigen and toward the peptide, IgG AOA [1] | r value, correlation between reactivity of sera toward ovarian antigen and toward the peptide, IgM AOA [1] | antigenic or immunogenic activity toward anti-ovary antibodies, in words [1] | recognition by serums containing anti-ovary antibodies [2] | reaction with anti-β-FSH monoclonal antibody 7G5A1 [3] | recognition by anti-β-FSH monoclonal antibodies 22A3G7; 5H3E8 [4] | further results
1 | SEQ ID No.1: linear sequence of 16 amino acids corresponding to the sequence of amino acids 78-93 of the β-chain of FSH (VATQCHCGKCDSDSTD; human FSH) | best correlation coefficients | 0.46 | 0.74 | 0.81 | identical activity | recognized | does not react | recognized | r value, IgA AOA vs IgA SEQ ID No.1 [5]: 0.11; r value, IgA AOA vs IgA SEQ ID No.1 ([5]; listed as SEQ ID NO:1): 0.10; r value, IgA AOA vs IgG SEQ ID No.1 ([5]; crude ovarian antigen IgA vs peptide IgG): 0.12; r value, IgA AOA vs IgM SEQ ID No.1 ([5]; crude ovarian antigen IgA vs peptide IgM): 0.01; r value, IgG AOA vs IgA SEQ ID No.1 ([5]; crude ovarian antigen IgG vs peptide IgA): 0.12; r value, IgG AOA vs IgG SEQ ID No.1 ([5]; crude ovarian antigen IgG vs peptide IgG): 0.18; r value, IgM AOA vs IgA SEQ ID No.1 ([5]; crude ovarian antigen IgM vs peptide IgA): 0.06; r value, IgM AOA vs IgG SEQ ID No.1 ([5]; crude ovarian antigen IgM vs peptide IgG): 0.10; r value, IgM AOA vs IgM SEQ ID No.1 ([5]; crude ovarian antigen IgM vs peptide IgM): 0.27
2 | SEQ ID No.2: sequence of 16 amino acids, bridged by a disulfide bond in position 5 and 7, amino acids 78-93 of the β-chain of FSH (VATQCHCGKCDSDSTD; disulfide 5-7) | – | 0.28 | 0.44 | 0.75 | weaker activity | – | – | – | –
3 | SEQ ID No.3: sequence of 16 amino acids, bridged by a disulfide bond in position 5 and 10, amino acids 78-93 of the β-chain of FSH (VATQCHCGKCDSDSTD; disulfide 5-10) | – | 0.49 | 0.79 | 0.71 | weaker activity | – | – | – | –
4 | SEQ ID No.4: sequence of 16 amino acids, bridged by a disulfide bond in position 7 and 10, amino acids 78-93 of the β-chain of FSH (VATQCHCGKCDSDSTD; disulfide 7-10) | – | 0.49 | 0.59 | 0.69 | weaker activity | – | – | – | –
5 | TQCHCGKC (cysteine pairing not given here) [SEQ ID No.5] | same results as those obtained for the peptide SEQ ID No.1 | – | – | – | identical activity | recognized | does not react | recognized | –
6 | β-chain of FSH: β-chain (β-subunit) of follicle stimulating hormone (protein) NSCELTNITIAIEKEECRFCISINTTWCAGYCYTRDLVYKDPARPKIQKTCTFKELVYETVRVPGCAHHADSLYTYPVATQCHCGKCDSDSTDCTVRGLGPSYCSFGEMKE | same results as those obtained for the peptide SEQ ID No.1 | – | – | – | – | – | – | – | –
